Measured values: ChEMBL document CHEMBL1221226 (Nat Chem Biol, 2009)
Residues, ends and D or L forms follow the SMILES beside them. *: point of attachment. X1 = CC(CN[C@@H](Cc1cnc[nH]1)C(=O)O)C(=O)*

Key:
[1] = target: Glucagon-like peptide 1 receptor (Homo sapiens, UniProt P43220); assay: Agonist activity at GLP1R expressed in HEK293 cells assessed as stimulation of cAMP production by luciferase reporter gene assay; type: functional, cell-based
[2] = target: Glucagon receptor (Homo sapiens, UniProt P47871); assay: Agonist activity at GCGR expressed in HEK293 cells assessed as stimulation of cAMP production by luciferase reporter gene assay; type: functional, cell-based
Glucagon receptor, sequence (P47871 whole entry): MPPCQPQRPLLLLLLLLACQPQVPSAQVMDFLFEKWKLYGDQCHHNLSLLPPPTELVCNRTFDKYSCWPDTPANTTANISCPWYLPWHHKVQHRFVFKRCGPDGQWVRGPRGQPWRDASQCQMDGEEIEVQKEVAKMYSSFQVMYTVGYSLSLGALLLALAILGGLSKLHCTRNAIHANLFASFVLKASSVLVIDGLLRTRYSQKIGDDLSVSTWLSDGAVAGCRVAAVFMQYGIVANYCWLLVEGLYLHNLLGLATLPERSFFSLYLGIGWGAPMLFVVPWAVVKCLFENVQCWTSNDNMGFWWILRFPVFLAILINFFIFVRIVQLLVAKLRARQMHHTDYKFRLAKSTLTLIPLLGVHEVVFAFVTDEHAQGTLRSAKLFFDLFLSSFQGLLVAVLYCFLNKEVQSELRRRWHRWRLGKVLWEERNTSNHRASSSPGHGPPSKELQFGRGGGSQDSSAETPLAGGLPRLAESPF

Glucagon-like peptide 1 receptor, sequence (P43220 whole entry): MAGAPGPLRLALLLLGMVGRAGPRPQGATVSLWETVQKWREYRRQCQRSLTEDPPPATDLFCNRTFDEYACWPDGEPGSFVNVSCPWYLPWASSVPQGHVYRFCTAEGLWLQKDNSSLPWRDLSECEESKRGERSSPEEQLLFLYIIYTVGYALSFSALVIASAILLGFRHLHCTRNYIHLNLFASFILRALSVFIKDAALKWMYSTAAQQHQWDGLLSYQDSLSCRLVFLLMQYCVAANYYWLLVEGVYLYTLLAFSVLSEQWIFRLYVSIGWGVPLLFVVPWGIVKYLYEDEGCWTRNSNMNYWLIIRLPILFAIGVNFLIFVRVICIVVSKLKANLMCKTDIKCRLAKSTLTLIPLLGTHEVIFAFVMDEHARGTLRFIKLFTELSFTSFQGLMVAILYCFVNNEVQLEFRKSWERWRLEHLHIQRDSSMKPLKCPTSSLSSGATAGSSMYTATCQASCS

Row | EC50 [1] [nM] | EC50 [2] [nM] | SMILES
1 | 1.1 | 0.053 | CSCC[C@H](NC(=O)[C@H](CC(C)C)NC(=O)[C@H](Cc1c[nH]c2ccccc12)NC(=O)[C@H](CCC(N)=O)NC(=O)[C@@H](NC(=O)[C@H](Cc1ccccc1)NC(=O)[C@H](CC(=O)O)NC(=O)[C@H](CCC(N)=O)NC(=O)[C@H](C)NC(=O)[C@H](CCCN=C(N)N)NC(=O)[C@H](CCCN=C(N)N)NC(=O)[C@H](CCC(=O)O)NC(=O)[C@H](CC(=O)O)NC(=O)[C@H](CC(C)C)NC(=O)[C@H](Cc1ccc(O)cc1)NC(=O)[C@H](CCCCN)NC(=O)[C@H](CO)NC(=O)[C@H](Cc1ccc(O)cc1)NC(=O)[C@H](CC(=O)O)NC(=O)[C@H](CO)NC(=O)[C@@H](NC(=O)[C@H](Cc1ccccc1)NC(=O)[C@@H](NC(=O)CNC(=O)[C@H](CCC(N)=O)NC(=O)[C@H](CO)N[C@@H](Cc1cnc[nH]1)C(=O)O)[C@@H](C)O)[C@@H](C)O)C(C)C)C(=O)N[C@@H](CC(N)=O)C(=O)N[C@H](C(=O)O)[C@@H](C)O
2 | 0.24 | 0.078 | CSCC[C@H](NC(=O)[C@H](CC(C)C)NC(=O)[C@H](Cc1c[nH]c2ccccc12)NC(=O)[C@@H]1CCC(=O)NCCCC[C@H](NC(=O)[C@H](C)NC(=O)[C@H](CCCN=C(N)N)NC(=O)[C@H](CCCN=C(N)N)NC(=O)[C@H](CO)NC(=O)[C@H](CC(=O)O)NC(=O)[C@H](CC(C)C)NC(=O)[C@H](Cc2ccc(O)cc2)NC(=O)[C@H](CCCCN)NC(=O)[C@H](CO)NC(=O)[C@H](Cc2ccc(O)cc2)NC(=O)[C@H](CC(=O)O)NC(=O)[C@H](CO)NC(=O)[C@@H](NC(=O)[C@H](Cc2ccccc2)NC(=O)[C@@H](NC(=O)CNC(=O)[C@H](CCC(N)=O)NC(=O)[C@H](CO)N[C@@H](Cc2cnc[nH]2)C(=O)O)[C@@H](C)O)[C@@H](C)O)C(=O)N[C@@H](CC(=O)O)C(=O)N[C@@H](Cc2ccccc2)C(=O)N[C@@H](C(C)C)C(=O)N1)C(=O)N[C@@H](CC(N)=O)C(=O)N[C@H](C(=O)O)[C@@H](C)O
3 | 0.13 | 0.12 | CSCC[C@H](NC(=O)[C@H](CC(C)C)NC(=O)[C@H](Cc1c[nH]c2ccccc12)NC(=O)[C@H](CCC(N)=O)NC(=O)[C@@H](NC(=O)[C@H](Cc1ccccc1)NC(=O)[C@H](CC(=O)O)NC(=O)[C@H](CCCCN)NC(=O)[C@H](C)NC(=O)[C@H](CCCN=C(N)N)NC(=O)[C@H](CCCN=C(N)N)NC(=O)[C@H](CO)NC(=O)[C@H](CC(=O)O)NC(=O)[C@H](CC(C)C)NC(=O)[C@H](Cc1ccc(O)cc1)NC(=O)[C@H](CCCCN)NC(=O)[C@H](CO)NC(=O)[C@H](Cc1ccc(O)cc1)NC(=O)[C@H](CC(=O)O)NC(=O)[C@H](CO)NC(=O)[C@@H](NC(=O)[C@H](Cc1ccccc1)NC(=O)[C@@H](NC(=O)CNC(=O)[C@H](CCC(N)=O)NC(=O)[C@H](CO)N[C@@H](Cc1cnc[nH]1)C(=O)O)[C@@H](C)O)[C@@H](C)O)C(C)C)C(=O)N[C@@H](CC(N)=O)C(=O)N[C@H](C(N)=O)[C@@H](C)O
4 | 0.58 | 0.13 | CSCC[C@H](NC(=O)[C@H](CC(C)C)NC(=O)[C@H](Cc1c[nH]c2ccccc12)NC(=O)[C@H](CCC(N)=O)NC(=O)[C@@H](NC(=O)[C@H](Cc1ccccc1)NC(=O)[C@H](CC(=O)O)NC(=O)[C@H](CCC(N)=O)NC(=O)[C@H](C)NC(=O)[C@H](CCCN=C(N)N)NC(=O)[C@H](CCCN=C(N)N)NC(=O)CNC(=O)[C@H](CC(=O)O)NC(=O)[C@H](CC(C)C)NC(=O)[C@H](Cc1ccc(O)cc1)NC(=O)[C@H](CCCCN)NC(=O)[C@H](CO)NC(=O)[C@H](Cc1ccc(O)cc1)NC(=O)[C@H](CC(=O)O)NC(=O)[C@H](CO)NC(=O)[C@@H](NC(=O)[C@H](Cc1ccccc1)NC(=O)[C@@H](NC(=O)CNC(=O)[C@H](CCC(N)=O)NC(=O)[C@H](CO)N[C@@H](Cc1cnc[nH]1)C(=O)O)[C@@H](C)O)[C@@H](C)O)C(C)C)C(=O)N[C@@H](CC(N)=O)C(=O)N[C@H](C(N)=O)[C@@H](C)O
5 | 0.051 | 0.046 | CSCC[C@H](NC(=O)[C@H](CC(C)C)NC(=O)[C@H](Cc1c[nH]c2ccccc12)NC(=O)[C@H](CCC(N)=O)NC(=O)[C@@H](NC(=O)[C@H](Cc1ccccc1)NC(=O)[C@H](CC(=O)O)NC(=O)[C@H](CCC(N)=O)NC(=O)[C@H](C)NC(=O)[C@H](CCCN=C(N)N)NC(=O)[C@H](CCCN=C(N)N)NC(=O)[C@@H]1CCC(=O)NCCCC[C@H](NC(=O)[C@H](CO)NC(=O)[C@H](Cc2ccc(O)cc2)NC(=O)[C@H](CC(=O)O)NC(=O)[C@H](CO)NC(=O)[C@@H](NC(=O)[C@H](Cc2ccccc2)NC(=O)[C@@H](NC(=O)CNC(=O)[C@H](CCC(N)=O)NC(=O)[C@H](CO)N[C@@H](Cc2cnc[nH]2)C(=O)O)[C@@H](C)O)[C@@H](C)O)C(=O)N[C@@H](Cc2ccc(O)cc2)C(=O)N[C@@H](CC(C)C)C(=O)N[C@@H](CC(=O)O)C(=O)N1)C(C)C)C(=O)N[C@@H](CC(N)=O)C(=O)N[C@H](C(=O)O)[C@@H](C)O
6 | 0.11 | 3.7 | CSCC[C@H](NC(=O)[C@H](CC(C)C)NC(=O)[C@H](Cc1c[nH]c2ccccc12)NC(=O)[C@H](CCC(N)=O)NC(=O)[C@@H](NC(=O)[C@H](Cc1ccccc1)NC(=O)[C@H](CC(=O)O)NC(=O)[C@H](CCC(N)=O)NC(=O)[C@H](C)NC(=O)[C@H](CCCNC(=N)N)NC(=O)[C@H](CCCNC(=N)N)NC(=O)[C@H](CCC(=O)O)NC(=O)[C@H](CC(=O)O)NC(=O)[C@H](CC(C)C)NC(=O)[C@H](Cc1ccc(O)cc1)NC(=O)[C@H](CCCCN)NC(=O)[C@H](CO)NC(=O)[C@H](Cc1ccc(O)cc1)NC(=O)[C@H](CC(=O)O)NC(=O)[C@H](CO)NC(=O)[C@@H](NC(=O)[C@H](Cc1ccccc1)NC(=O)[C@@H](NC(=O)CNC(=O)[C@H](CCC(=O)O)NC(=O)[C@H](CO)N[C@@H](Cc1cnc[nH]1)C(=O)O)[C@@H](C)O)[C@@H](C)O)C(C)C)C(=O)N[C@@H](CC(N)=O)C(=O)N[C@H](C(N)=O)[C@@H](C)O
7 | 0.075 | 0.048 | CSCC[C@H](NC(=O)[C@H](CC(C)C)NC(=O)[C@H](Cc1c[nH]c2ccccc12)NC(=O)[C@H](CCC(N)=O)NC(=O)[C@@H](NC(=O)[C@H](Cc1ccccc1)NC(=O)[C@H](CC(=O)O)NC(=O)[C@H](CCCCN)NC(=O)[C@H](C)NC(=O)[C@H](CCCN=C(N)N)NC(=O)[C@H](CCC(N)=O)NC(=O)[C@H](CCC(=O)O)NC(=O)[C@H](CC(=O)O)NC(=O)[C@H](CC(C)C)NC(=O)[C@H](Cc1ccc(O)cc1)NC(=O)[C@H](CCCCN)NC(=O)[C@H](CO)NC(=O)[C@H](Cc1ccc(O)cc1)NC(=O)[C@H](CC(=O)O)NC(=O)[C@H](CO)NC(=O)[C@@H](NC(=O)[C@H](Cc1ccccc1)NC(=O)[C@@H](NC(=O)CNC(=O)[C@H](CCC(N)=O)NC(=O)[C@H](CO)N[C@@H](Cc1cnc[nH]1)C(=O)O)[C@@H](C)O)[C@@H](C)O)C(C)C)C(=O)N[C@@H](CC(N)=O)C(=O)N[C@H](C(N)=O)[C@@H](C)O
8 | 0.014 | 0.59 | CC[C@H](C)[C@H](NC(=O)[C@H](Cc1ccccc1)NC(=O)[C@H](CCC(=O)O)NC(=O)[C@H](CCCCN)NC(=O)[C@H](C)NC(=O)[C@H](C)NC(=O)[C@H](CCC(N)=O)NC(=O)[C@H](CCC(=O)O)NC(=O)[C@H](CC(=O)O)NC(=O)[C@H](CC(C)C)NC(=O)[C@H](Cc1ccc(O)cc1)NC(=O)[C@H](CCCCN)NC(=O)[C@H](CO)NC(=O)[C@H](Cc1ccc(O)cc1)NC(=O)[C@H](CC(=O)O)NC(=O)[C@H](CO)NC(=O)[C@@H](NC(=O)[C@H](Cc1ccccc1)NC(=O)[C@@H](NC(=O)CNC(=O)[C@H](CCC(N)=O)NC(=O)C(C)CN[C@@H](Cc1cnc[nH]1)C(=O)O)[C@@H](C)O)[C@@H](C)O)C(=O)N[C@@H](C)C(=O)N[C@@H](Cc1c[nH]c2ccccc12)C(=O)N[C@@H](CC(C)C)C(=O)N[C@@H](CCSC)C(=O)N[C@@H](CC(N)=O)C(=O)N[C@H](C(=O)O)[C@@H](C)O (some centres undefined) (X1-QGTFTSDYSKYLDEQAAKEFIAWLMNT-OH)
9 | 0.087 | 0.08 | CSCC[C@H](NC(=O)[C@H](CC(C)C)NC(=O)[C@H](Cc1c[nH]c2ccccc12)NC(=O)[C@H](C)NC(=O)[C@@H](NC(=O)[C@H](Cc1ccccc1)NC(=O)[C@H](CC(=O)O)NC(=O)[C@H](CCCCN)NC(=O)[C@H](C)NC(=O)[C@H](CCCN=C(N)N)NC(=O)[C@H](CCCN=C(N)N)NC(=O)[C@H](CCC(=O)O)NC(=O)[C@H](CC(=O)O)NC(=O)[C@H](CC(C)C)NC(=O)[C@H](Cc1ccc(O)cc1)NC(=O)[C@H](CCCCN)NC(=O)[C@H](CO)NC(=O)[C@H](Cc1ccc(O)cc1)NC(=O)[C@H](CC(=O)O)NC(=O)[C@H](CO)NC(=O)[C@@H](NC(=O)[C@H](Cc1ccccc1)NC(=O)[C@@H](NC(=O)CNC(=O)[C@H](CCC(N)=O)NC(=O)[C@H](CO)N[C@@H](Cc1cnc[nH]1)C(=O)O)[C@@H](C)O)[C@@H](C)O)C(C)C)C(=O)N[C@@H](CC(N)=O)C(=O)N[C@H](C(N)=O)[C@@H](C)O
10 | 0.26 |  | CSCC[C@H](NC(=O)[C@H](CC(C)C)NC(=O)[C@H](Cc1c[nH]c2ccccc12)NC(=O)[C@H](CCC(N)=O)NC(=O)[C@@H](NC(=O)[C@H](Cc1ccccc1)NC(=O)[C@H](CC(=O)O)NC(=O)[C@H](CCC(N)=O)NC(=O)[C@H](C)NC(=O)[C@H](CCCN=C(N)N)NC(=O)[C@H](CCCN=C(N)N)NC(=O)[C@H](CCC(N)=O)NC(=O)[C@H](CC(=O)O)NC(=O)[C@H](CC(C)C)NC(=O)[C@H](Cc1ccc(O)cc1)NC(=O)[C@H](CCCCN)NC(=O)[C@H](CO)NC(=O)[C@H](Cc1ccc(O)cc1)NC(=O)[C@H](CC(=O)O)NC(=O)[C@H](CO)NC(=O)[C@@H](NC(=O)[C@H](Cc1ccccc1)NC(=O)[C@@H](NC(=O)CNC(=O)[C@H](CCC(N)=O)NC(=O)[C@H](CO)N[C@@H](Cc1cnc[nH]1)C(=O)O)[C@@H](C)O)[C@@H](C)O)C(C)C)C(=O)N[C@@H](CC(N)=O)C(=O)N[C@H](C(N)=O)[C@@H](C)O
